Test results reported in ChEMBL document CHEMBL1201862, “PubChem BioAssay data set” (2004).
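Assay format: 96-well plates, 48-hour exposure. Here, GI50 denotes the concentration required for 50% inhibition of growth.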 Calls of active or inactive are those of the source. No stated cut-off is given here; in the data, active = GI50 up to about 1.1 µM and inactive = higher.

Experiments:
Test in all cases: growth of human tumour cells (NCI), 48 h
[1] = system: 786-0
[2] = system: A498
[3] = system: A549
[4] = system: ACHN
[5] = system: CAKI-1
[6] = system: CCRF-CEM
[7] = system: COLO 205
[8] = system: DU-145
[9] = system: EKVX
[10] = system: HCC 2998
[11] = system: HCT-116
[12] = system: HCT-15
[13] = system: HL-60
[14] = system: HOP-62
[15] = system: HOP-92
[16] = system: Hs-578T
[17] = system: IGROV-1
[18] = system: K562
[19] = system: KM12
[20] = system: LOX IMVI
[21] = system: M14
[22] = system: MCF7
[23] = system: MDA-MB-231
[24] = system: MDA-MB-435
[25] = system: MDA-N
[26] = system: MOLT-4
[27] = system: Malme-3M
[28] = system: NCI-H23
[29] = system: NCI-H460
[30] = system: NCI-H522
[31] = system: NCI/ADR-RES
[32] = system: OVCAR-3
[33] = system: OVCAR-5
[34] = system: OVCAR-8
[35] = system: PC-3
[36] = system: RPMI-8226
[37] = system: RXF 393
[38] = system: SF-268
[39] = system: SF-295
[40] = system: SF-539
[41] = system: SK-MEL-28
[42] = system: SK-MEL-2
[43] = system: SK-MEL-5
[44] = system: SK-OV-3
[45] = system: SN12C
[46] = system: SNB-19
[47] = system: SR
[48] = system: SW-620
[49] = system: T47D
[50] = system: TK-10
[51] = system: U-251
[52] = system: UACC-257
[53] = system: UACC-62
[54] = system: UO-31
[55] = system: BT-549
[56] = system: HT-29
[57] = system: NCI-H226
[58] = system: OVCAR-4
[59] = system: SNB-75

Compound: COc1cc(/C=C\C(=O)O)ccc1OCc1ccccc1
- GI50 [1]: > 100 µM (inactive)
- GI50 [2]: > 100 µM (inactive)
- GI50 [3]: > 100 µM (inactive)
- GI50 [4]: > 100 µM (inactive)
- GI50 [5]: > 100 µM (inactive)
- GI50 [6]: > 100 µM (inactive)
- GI50 [7]: > 100 µM (inactive)
- GI50 [8]: > 100 µM (inactive)
- GI50 [9]: > 100 µM (inactive)
- GI50 [10]: > 100 µM (inactive)
- GI50 [11]: > 100 µM (inactive)
- GI50 [12]: > 100 µM
- GI50 [13]: > 100 µM (inactive)
- GI50 [14]: > 100 µM (inactive)
- GI50 [15]: 20.3 µM (inactive)
- GI50 [16]: 49.3 µM (inactive)
- GI50 [17]: > 100 µM (inactive)
- GI50 [18]: > 100 µM (inactive)
- GI50 [19]: 0.217 µM (active)
- GI50 [20]: > 100 µM (inactive)
- GI50 [21]: > 100 µM (inactive)
- GI50 [22]: > 100 µM (inactive)
- GI50 [23]: > 100 µM (inactive)
- GI50 [24]: > 100 µM (inactive)
- GI50 [25]: > 100 µM (inactive)
- GI50 [26]: > 100 µM (inactive)
- GI50 [27]: 0.053 µM (active)
- GI50 [28]: > 100 µM (inactive)
- GI50 [29]: > 100 µM (inactive)
- GI50 [30]: > 100 µM (inactive)
- GI50 [31]: > 100 µM (inactive)
- GI50 [32]: > 100 µM (inactive)
- GI50 [33]: > 100 µM (inactive)
- GI50 [34]: > 100 µM (inactive)
- GI50 [35]: > 100 µM (inactive)
- GI50 [36]: > 100 µM (inactive)
- GI50 [37]: > 100 µM (inactive)
- GI50 [38]: > 100 µM (inactive)
- GI50 [39]: > 100 µM (inactive)
- GI50 [40]: > 100 µM (inactive)
- GI50 [41]: > 100 µM (inactive)
- GI50 [42]: > 100 µM (inactive)
- GI50 [43]: > 100 µM (inactive)
- GI50 [44]: > 100 µM (inactive)
- GI50 [45]: > 100 µM (inactive)
- GI50 [46]: > 100 µM (inactive)
- GI50 [47]: > 100 µM (inactive)
- GI50 [48]: > 100 µM (inactive)
- GI50 [49]: > 100 µM (inactive)
- GI50 [50]: > 100 µM (inactive)
- GI50 [51]: > 100 µM (inactive)
- GI50 [52]: > 100 µM (inactive)
- GI50 [53]: > 100 µM (inactive)
- GI50 [54]: > 100 µM (inactive)

Compound: COC(=O)[C@]1(C)CCCn2c(=O)n(-c3ccccc3)c(=O)n21
- GI50 [1]: > 100 µM (inactive)
- GI50 [2]: > 100 µM (inactive)
- GI50 [3]: > 100 µM (inactive)
- GI50 [4]: > 100 µM (inactive)
- GI50 [55]: > 100 µM (inactive)
- GI50 [5]: > 100 µM (inactive)
- GI50 [6]: > 100 µM (inactive)
- GI50 [7]: > 100 µM (inactive)
- GI50 [8]: > 100 µM (inactive)
- GI50 [9]: > 100 µM (inactive)
- GI50 [10]: > 100 µM (inactive)
- GI50 [11]: > 100 µM (inactive)
- GI50 [12]: > 100 µM
- GI50 [14]: > 100 µM (inactive)
- GI50 [15]: > 100 µM (inactive)
- GI50 [56]: > 100 µM (inactive)
- GI50 [16]: > 100 µM (inactive)
- GI50 [17]: > 100 µM (inactive)
- GI50 [18]: > 100 µM (inactive)
- GI50 [19]: > 100 µM (inactive)
- GI50 [20]: > 100 µM (inactive)
- GI50 [21]: > 100 µM (inactive)
- GI50 [22]: > 100 µM (inactive)
- GI50 [23]: > 100 µM (inactive)
- GI50 [24]: > 100 µM (inactive)
- GI50 [26]: > 100 µM (inactive)
- GI50 [57]: 68.1 µM (inactive)
- GI50 [28]: > 100 µM (inactive)
- GI50 [30]: > 100 µM (inactive)
- GI50 [31]: > 100 µM (inactive)
- GI50 [32]: > 100 µM (inactive)
- GI50 [58]: > 100 µM (inactive)
- GI50 [33]: > 100 µM (inactive)
- GI50 [34]: > 100 µM (inactive)
- GI50 [35]: > 100 µM (inactive)
- GI50 [36]: > 100 µM (inactive)
- GI50 [37]: > 100 µM (inactive)
- GI50 [38]: > 100 µM (inactive)
- GI50 [39]: > 100 µM (inactive)
- GI50 [40]: > 100 µM (inactive)
- GI50 [41]: > 100 µM (inactive)
- GI50 [42]: > 100 µM (inactive)
- GI50 [43]: > 100 µM (inactive)
- GI50 [44]: > 100 µM (inactive)
- GI50 [45]: > 100 µM (inactive)
- GI50 [46]: > 100 µM (inactive)
- GI50 [59]: > 100 µM (inactive)
- GI50 [48]: > 100 µM (inactive)
- GI50 [49]: > 100 µM (inactive)
- GI50 [50]: > 100 µM (inactive)
- GI50 [51]: > 100 µM (inactive)
- GI50 [52]: > 100 µM (inactive)
- GI50 [53]: > 100 µM (inactive)
- GI50 [54]: > 100 µM (inactive)

Compound: CN(C)CCCOC(=O)C(c1ccccc1)C1(O)CCSCC1 (stereo unspecified)
- GI50 [1]: > 100 µM (inactive)
- GI50 [2]: > 100 µM (inactive)
- GI50 [3]: > 100 µM (inactive)
- GI50 [4]: > 100 µM (inactive)
- GI50 [5]: 32.7 µM (inactive)
- GI50 [6]: > 100 µM (inactive)
- GI50 [7]: > 100 µM (inactive)
- GI50 [8]: > 100 µM (inactive)
- GI50 [9]: > 100 µM (inactive)
- GI50 [10]: > 100 µM (inactive)
- GI50 [11]: > 100 µM (inactive)
- GI50 [12]: > 100 µM
- GI50 [13]: > 100 µM (inactive)
- GI50 [14]: > 100 µM (inactive)
- GI50 [15]: > 100 µM (inactive)
- GI50 [56]: > 100 µM (inactive)
- GI50 [16]: > 100 µM (inactive)
- GI50 [17]: > 100 µM (inactive)
- GI50 [18]: > 100 µM (inactive)
- GI50 [19]: 68.2 µM (inactive)
- GI50 [20]: > 100 µM (inactive)
- GI50 [21]: > 100 µM (inactive)
- GI50 [22]: > 100 µM (inactive)
- GI50 [23]: > 100 µM (inactive)
- GI50 [24]: > 100 µM (inactive)
- GI50 [25]: > 100 µM (inactive)
- GI50 [26]: > 100 µM (inactive)
- GI50 [27]: > 100 µM (inactive)
- GI50 [57]: 79.1 µM (inactive)
- GI50 [28]: > 100 µM (inactive)
- GI50 [29]: > 100 µM (inactive)
- GI50 [30]: > 100 µM (inactive)
- GI50 [31]: 10.2 µM (inactive)
- GI50 [32]: > 100 µM (inactive)
- GI50 [58]: > 100 µM (inactive)
- GI50 [33]: > 100 µM (inactive)
- GI50 [34]: > 100 µM (inactive)
- GI50 [35]: > 100 µM (inactive)
- GI50 [36]: > 100 µM (inactive)
- GI50 [37]: > 100 µM (inactive)
- GI50 [38]: > 100 µM (inactive)
- GI50 [39]: > 100 µM (inactive)
- GI50 [40]: > 100 µM (inactive)
- GI50 [41]: > 100 µM (inactive)
- GI50 [42]: > 100 µM (inactive)
- GI50 [43]: > 100 µM (inactive)
- GI50 [44]: > 100 µM (inactive)
- GI50 [45]: > 100 µM (inactive)
- GI50 [46]: 26.8 µM (inactive)
- GI50 [59]: 87.1 µM (inactive)
- GI50 [47]: > 100 µM (inactive)
- GI50 [48]: 32.3 µM (inactive)
- GI50 [49]: > 100 µM (inactive)
- GI50 [50]: > 100 µM (inactive)
- GI50 [51]: > 100 µM (inactive)
- GI50 [52]: > 100 µM (inactive)
- GI50 [53]: > 100 µM (inactive)
- GI50 [54]: > 100 µM (inactive)
